Test results published in publication PMC12388506, “Preclinical Evaluation of 2-Aminobenzothiazole Derivatives: In Silico, In Vitro, and Preliminary In Vivo Studies as Diabetic Treatments and Their Complications” (Molecules, 2025).

Tests used:
[1] = biological target: T1, ALR2 enzyme (Homo sapiens, UniProt P15121); test: ALR2 activity assay kit (ab273276), inhibition; type: biochemical;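 as to relative ALR2 inhibition: inhibition calculated from the rate of NADPH cofactor consumption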
T1 construct: purchased ab273276
Experimental: The obtained dose–response curve had concentrations of 10 μM, 5 μM, 500 nM, 50 nM, and 5 nM.

[2] = biological target: T1, ALR2 enzyme; test: ALR2 activity assay kit (ab273276), inhibition; type: biochemical; conditions: Inhibitor concentration
[3] = ABTS assay
Experimental: (§1) All synthesized compounds were evaluated at 30 μM, 50 μM, 70 μM, 90 μM, and 110 μM under two of the most widely used methods in research to directly measure the antioxidant and anti-radical intrinsic capacity, FRAP, and ABTS assay, which were validated by a dose–response curve of 5-ASA as a reference. In the same way, these tests were carried out in triplicate using an assay kit (from Pharmaceutical and Biotechnological Innovation-Services) according to the manufacturer’s instructions.

[4] = FRAP assay
Experimental: as §1

[5] = system: male Wistar rat; test: Acute oral toxicity, Up and Down procedure (OECD 425); type: in vivo; parameters: Heart weight / IWA (initial weight of animals) / FWA (final weight of animals) / Spleen weight / Liver weight / Intestine weight / Stomach weight / Kidney weight: unit not given here; conditions: for FWA (final weight of animals): after 14 days; for Heart weight / Intestine weight / Kidney weight / Liver weight / Spleen weight / Stomach weight: necropsy; for toxicity category (OECD): maximum dose 1250 mg/Kg oral
Experimental: All synthesized compounds (8c, 8d, and 12d as a racemic mixture) were suspended in 2% Tween 80 in water and administered orally by an esophageal cannula following the “Up and Down” methodology. Nevertheless, compounds could not be solubilized in the desired volume to complete the highest dose (1750 mg/Kg), so the toxicity test was performed with a maximum dose of 1250 mg/Kg. Even so, the values obtained indicate that these compounds are classified within toxicity category 4 according to the guidelines established by the Organization for Economic Co-operation and Development (OECD).
The “Up and Down” procedure of OECD Guideline 425 was used to estimate the LD50 value of synthesized compounds. Briefly, a dose of 175 mg/Kg was administered to a male Wistar rat, which was monitored continuously for 48 h. As the animal survived, a second animal received a dose of 550 mg/Kg, and, as it survived, a third animal received an increasing dose of 1750 mg/Kg. Finally, two other rats were administered the same dose. All animals were kept under observation for 14 days, and 24 h later, they were taken to the humane endpoint for macroscopic examination of organs and tissues. Finally, the LD50 value of the compounds was estimated to determine their degree of toxicity and classified based on the GHS of Classification and Labeling of Chemicals.

[6] = Inhibitor concentration 5000 nm
[7] = Inhibitor concentration 10000 nm

SMILES | relative ALR2 inhibition ([1]; Inhibitor concentration 5 nm) [%] | relative ALR2 inhibition ([1]; Inhibitor concentration 50 nm) [%] | relative ALR2 inhibition ([1]; Inhibitor concentration 500 nm) [%] | relative ALR2 inhibition [1, 6] [%] | relative ALR2 inhibition [1, 7] [%] | relative ALR2 inhibition [2] [%] | Percentage reduction of radical cation ABTS ([3]; 30 µM) [%] | Percentage reduction of radical cation ABTS ([3]; 50 µM) [%] | Percentage reduction of radical cation ABTS ([3]; 70 µM) [%] | Percentage reduction of radical cation ABTS ([3]; 90 µM) [%] | Percentage reduction of radical cation ABTS ([3]; 110 µM) [%] | Percentage reduction of ferric ion to ferrous ion (FRAP) ([4]; 30 µM) [%] | Percentage reduction of ferric ion to ferrous ion (FRAP) ([4]; 50 µM) [%] | Percentage reduction of ferric ion to ferrous ion (FRAP) ([4]; 70 µM) [%] | Percentage reduction of ferric ion to ferrous ion (FRAP) ([4]; 90 µM) [%] | FWA (final weight of animals) ([5]; 1250 mg/Kg oral, mean ± SEM) | Heart weight ([5]; 1250 mg/Kg oral, mean ± SEM) | Intestine weight ([5]; 1250 mg/Kg oral, mean ± SEM) | Kidney weight ([5]; 1250 mg/Kg oral, mean ± SEM) | Liver weight ([5]; 1250 mg/Kg oral, mean ± SEM) | other results
CC(/C=C1\SC(=S)N(CC(=O)O)C1=O)=C\c1ccccc1 [Epa, epalrestat, reference compound] | 5.000 | 5.288 | 12.513 | 58.372 | 100.000 | 3.000 | – | – | – | – | – | – | – | – | – | – | – | – | – | – | –
CNC(=O)C(Cc1ccccc1)N/C(=N\c1nc2ccccc2s1)SC (racemic) [12d, Methyl (RS, E)-N’-(benzo[d]thiazol-2-yl)-N-(1-(methylamino)-1-oxo-3-phenylpropan-2-yl)carbamimidothioate] | 29.534 | 32.532 | 33.993 | 48.448 | 86.455 | 32.814 | -3.4 | -3.7 | -2.3 | -3.1 | -1.9 | 0.19 | 0.20 | 0.18 | 0.20 | 309.67 ± 4.67 | 1.23 ±0.13 | 29.10 ± 0.50 | 2.87 ± 0.067 | 19.33 ± 0.03 | IWA (initial weight of animals) ([5]; 1250 mg/Kg oral, mean ± SEM): 208.47 ± 6.47; Spleen weight ([5]; 1250 mg/Kg oral, mean ± SEM): 0.83 ± 0.03; Stomach weight ([5]; 1250 mg/Kg oral, mean ± SEM): 1.53 ± 0.07; toxicity category (OECD) [5]: 4
COC(=O)[C@@H](N/C(=N\c1nc2ccccc2s1)SC)c1ccccc1 [8c, Methyl (S,E)-2-(((benzo[d]thiazol-2-ylimino)(methylthio)methyl)amino)-2-phenylacetate] | 82.945 | 85.158 | 68.371 | 53.000 | – | 90.000 | -3.5 | -3.9 | -3.8 | -2.9 | -2.8 | 13.2 | 14.4 | 15.5 | 19.6 | 204.37 ± 1.47 | 1.07 ± 0.17 | 30.20 ± 1.50 | 2.57 ± 0.27 | 18.87 ± 1.47 | concentrations at which ALR2 was inhibited [1]: below 10 µM; concentration dependence of ALR2 inhibition (IC50 not calculable) ([1]; 10 μM to 5 nM): did not show a concentration-dependent response; Percentage reduction of ferric ion to ferrous ion (FRAP) ([4]; 110 µM): 20.2%; Spleen weight ([5]; 1250 mg/Kg oral, mean ± SEM): 0.73 ± 0.03; Stomach weight ([5]; 1250 mg/Kg oral, mean ± SEM): 1.57 ± 0.07; toxicity category (OECD) [5]: 4
